In US20230031406A1, “COMPOUNDS AND COMPOSITIONS FOR TREATING CONDITIONS ASSOCIATED WITH NLRP ACTIVITY” (Novartis AG, priority 2018, published 2023):

Each compound was assayed on PMA-differentiated THP-1 cells (assay: IL-1β production in PMA-differentiated THP-1 cells stimulated with gramicidin (hTHP-1 assay containing 2% fetal bovine serum; Procedures 1 and 2)). Conditions: Homo sapiens, THP-1, Table B1; 2% fetal bovine serum; class symbols; read-out: Average IC50 of compounds in hTHP-1 assay: hTHP-1 IC50.
Format: cell-based, human
Summary of the method: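 IL-1β release from PMA-differentiated THP-1 macrophage-like cells was triggered by 5 μM gramicidin for 2 h after 1 h compound exposure, then measured by HTRF.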

SMILES	IC50 [µM]
CC1CCc2c1nc1c(c2NC(=O)N=S(N)(=O)c2ccc(CN(C)C)cc2F)CCC1 (centres unmarked) [Compound 139, 4-((dimethylamino)methyl)-2-fluoro-N′-((3-methyl-1,2,3,5,6,7-hexahydrodicyclopenta[b,e]pyridin-8-yl)carbamoyl)benzenesulfon-imidamide]	0.2 to 1
CC(C)c1ncc(F)c(C(C)C)c1NC(=O)N=S(N)(=O)c1cnc(C(C)(C)O)s1 (centres unmarked) [Compound 164, N′-((5-fluoro-2,4-diisopropylpyridin-3-yl)carbamoyl)-2-(2-hydroxypropan-2-yl)thiazole-5-sulfonimidamide]	1 to 5

Same assay, conditions: Homo sapiens, THP-1, Table B2; 2% fetal bovine serum; class symbols; read-out: hTHP-1 IC50

SMILES	IC50 [µM]
CCC1CCc2c1nc1c(c2NC(=O)N=S(N)(=O)c2ccn(C(F)F)n2)CCC1 (single isomer, unassigned) [Compound 668b, (R, R) or (R, S) or (S, R) or (S, S)-1-(Difluoromethyl)-N′-((3-ethyl-1,2,3,5,6,7-hexahydrodicyclopenta [b,e]pyridin-8-yl)carbamoyl)-1H-pyrazole-3-sulfonimidamide]	5 to 30
Cc1c(CC2CC2)nc2c(c1NC(=O)N=S(N)(=O)c1cc(C(C)(C)O)cs1)CCC2 (single isomer, unassigned) [Compound 665b, (R) or (S)-N′-((2-(cyclopropylmethyl)-3-methyl-6,7-dihydro-5H-cyclopenta[b]pyridin-4-yl)carbamoyl)-4-(2-hydroxypropan-2-yl)thiophene-2-sulfonimidamide]	1 to 5
Cc1nc2c(c(NC(=O)N=S(N)(=O)c3cc(C(C)(C)O)cs3)c1C1CC1)CCC2 (centres unmarked) [Compound 623, N′-((3-cyclopropyl-2-methyl-6,7-dihydro-5H-cyclopenta[b]pyridin-4-yl)carbamoyl)-4-(2-hydroxypropan-2-yl)thiophene-2-sulfonimidamide]	0.2 to 1
Cc1c(C2CCC2)nc2c(c1NC(=O)N=S(N)(=O)c1cc(C(C)(C)O)cs1)CCC2 (centres unmarked) [Compound 658, N′-((2-cyclobutyl-3-methyl-6,7-dihydro-5H-cyclopenta[b]pyridin-4-yl)carbamoyl)-4-(2-hydroxypropan-2-yl)thiophene-2-sulfonimidamide]	5 to 30
Cc1c(C2(F)CC2)nc2c(c1NC(=O)N=S(N)(=O)c1sc(C(C)(C)O)cc1F)CCC2 (centres unmarked) [Compound 733]	1 to 5
Cc1nc2c(c(NC(=O)N=S(N)(=O)c3cc(C(C)(C)O)cs3)c1C(C)C)CCC2 (centres unmarked) [Compound 622, 4-(2-Hydroxypropan-2-yl)-N′-((3-isopropyl-2-methyl-6,7-dihydro-5H-cyclopenta[b]pyridin-4-yl)carbamoyl)thiophene-2-sulfonimidamide]	5 to 30
CC(C)(O)c1cnc(S(N)(=O)=NC(=O)Nc2c3c(nc4c2CCC4(C)C)CCC3)s1 (centres unmarked) [Compound 686, N′-((3,3-dimethyl-1,2,3,5,6,7-hexahydrodicyclopenta[b,e]pyridin-8-yl)carbamoyl)-5-(2-hydroxypropan-2-yl)thiazole-2-sulfonimidamide]	0.2 to 1
Cc1c(C2(C)CC2)nc2c(c1NC(=O)N=S(N)(=O)c1cnc(C(C)(C)O)s1)CCC2 (centres unmarked) [Compound 641, 2-(2-Hydroxypropan-2-yl)-N′-((3-methyl-2-(1-methylcyclopropyl)-6,7-dihydro-5H-cyclopenta[b]pyridin-4-yl)carbamoyl)thiazole-5-sulfonimidamide]	5 to 30

Same assay, conditions: Homo sapiens, THP-1, Table B2; 2% fetal bovine serum; numeric bounds; read-out: hTHP-1 IC50

SMILES	IC50 [µM]
CC(C)(O)c1cc(C#N)cc(S(N)(=O)=NC(=O)Nc2c3c(nc4c2CCC4(C)C)CCC3)c1 (single isomer, unassigned) [Compound 674a, (S) or (R)-3-Cyano-N′-((3,3-methyl-1,2,3,5,6,7-hexahydrodicyclopenta [b,e]pyridin-8-yl)carbamoyl)-5-(2-hydroxypropan-2-yl)benzene-sulfonimidamide]	> 30
CC(C)(O)c1cc(Br)c(S(N)(=O)=NC(=O)Nc2c3c(nc4c2CCC4)CCC3)s1 (single isomer, unassigned) [Compound 690a, (S) or (R)-3-Bromo-N′-((1,2,3,5,6,7-hexahydrodicyclopenta [b,e]pyridin-8-yl)carbamoyl)-5-(2-hydroxypropan-2-yl)thiophene-2-sulfonamidamide]	> 30

Same assay, conditions: Homo sapiens, THP-1, Table B3; hTHP-1 assay, 2% fetal bovine serum; class symbols; read-out: IC50

SMILES	IC50 [µM]
CCn1cc(F)c(S(N)(=O)=NC(=O)Nc2c3c(nc4c2CC[C@H]4C)CCC3)n1 (stereo partly drawn) [Example 602, 1-Ethyl-4-fuoro-N′-(((R)-3-methyl-1,2,3,5,6,7-hexahydrodicyclopenta[b,e]pyridin-8-yl)carbamoyl)-1H-pyrazole-3-sulfonimidamide]	0.008 to 0.04
CC(C)(O)c1ncc([S@](N)(=O)=NC(=O)Nc2c3c(nc(C(F)(F)F)c2C2CC2)CCC3)s1 [Example 577, (R)—N′-((3-cyclopropyl-2-(trifluoromethyl)-6,7-dihydro-5H-cyclopenta[b]pyridin-4-yl)carbamoyl)-2-(2-hydroxypropan-2-yl)thiazole-5-sulfonimidamide]	1 to 5

Same assay, conditions: Homo sapiens, THP-1, Table B3; hTHP-1 assay, 2% fetal bovine serum; numeric values; read-out: IC50

SMILES	IC50 [µM]
CN(C)Cc1nc(C(C)(C)O)sc1S(N)(=O)=NC(=O)Nc1c2c(nc3c1CCC3(C)C)CCC2 (centres unmarked) [compound 592, N′-((3,3-dimethyl-1,2,3,5,6,7-hexahydrodicyclopenta[b,e]pyridin-8-yl)carbamoyl)-4-((dimethylamino)methyl)-2-(2-hydroxypropan-2-yl)thiazole-5-sulfonimidamide]	> 30

Same assay, conditions: Table B1; 2% fetal bovine serum; class symbols; read-out: Average IC50 of compounds in hTHP-1 assay: hTHP-1 IC50

SMILES	IC50 [µM]
CC1CCc2c1nc1c(c2NC(=O)N=S(N)(=O)c2cnc(C(C)(C)O)s2)CCC1 (centres unmarked) [Compound 162, 2-(2-hydroxypropan-2-yl)-N′-((3-methyl-1,2,3,5,6,7-hexahydrodicyclopenta[b,e]pyridin-8-yl)carbamoyl)thiazole-5-sulfonimidamide]	0.04 to 0.2
CC1CCc2c1nc1c(c2NC(=O)N=S(N)(=O)c2ccn(C(C)C)n2)CCC1 (single isomer, unassigned) [Compound 129ba, (R,S) or (R,R)-1-isopropyl-N′-((3-methyl-1,2,3,5,6,7-hexa-hydrodicyclo-penta[b,e]pyridin-8-yl)carbamoyl)-1H-pyrazole-3-sulfonimidamide]	1 to 5
Cc1c(C2CC2)nc2c(c1NC(=O)N=S(N)(=O)c1cnc(C(C)(C)O)s1)CCC2 (single isomer, unassigned) [Compound 124b, (R) or (S)-N′-((2-cyclopropyl-3-methyl-6,7-dihydro-5H-cyclopenta[b]pyridin-4-yl)carbamoyl)-2-(2-hydroxypropan-2-yl)thiazole-5-sulfonimidamide]	0.2 to 1
CC1CCc2c1nc1c(c2NC(=O)N=S(N)(=O)c2ccn(C(F)F)n2)CCC1 (single isomer, unassigned) [Compound 184a, (R,R) or (R,S)-1-(difluoro-methyl)-N′-((3-methyl-1,2,3,5,6,7-hexahydro-dicyclopenta[b,e]pyridin-8-yl)carbamoyl)-1H-pyrazole-3-sulfonimidamide]	0.04 to 0.2
CC1CCc2c1nc1c(c2NC(=O)N=S(N)(=O)c2cc(C(C)(C)O)cs2)CCC1C (single isomer, unassigned) [Compound 131c, (S,R,S) and (S,S,R) or (S,R,R) or (S,S,S)-N′-((3,5-dimethyl-1,2,3,5,6,7-hexa-hydrodicyclo-penta[b,e]pyridin-8-yl)carbamoyl)-4-(2-hy-droxypropan-2-yl)thiophene-2-sulfonimidamide]	5 to 30

Same assay, conditions: Table B2; 2% fetal bovine serum; class symbols; read-out: hTHP-1 IC50

SMILES	IC50 [µM]
CC1CCc2c1nc1c(c2NC(=O)N=S(N)(=O)c2cn(C(C)C)cn2)CCC1 (centres unmarked) [Compound 660, 1-Isopropyl-N′-((3-methyl-1,2,3,5,6,7-hexahydrodicyclopenta[b,e]pyridin-8-yl)carbamoyl)-1H-imidazole-4-sulfonimidamide]	5 to 30
CC(C)(O)c1cnc(S(N)(=O)=NC(=O)Nc2c3c(nc4c2CCC4(C)C)CCC3)s1 (single isomer, unassigned) [Compound 686b, (R) or (S)-N′-((3,3-dimethyl-1,2,3,5,6,7-hexahydrodicyclopenta [b,e]pyridin-8-yl)carbamoyl)-5-(2-hydroxypropan-2-yl)thiazole-2-sulfonimidamide]	5 to 30
Cc1c(C2CC2)nc2c(c1NC(=O)N=S(N)(=O)c1cc(C(C)(C)O)cs1)CCC2C (single isomer, unassigned) [Compound 656c, (S, R) or (S, S) or (R, S) or (R, R)-N′-((2-Cyclopropyl-3,7-dimethyl-6,7-dihydro-5H-cyclopenta[b]pyridin-4-yl)carbamoyl)-4-(2-hydroxypropan-2-yl)thiophene-2-sulfonimidamide]	5 to 30
CC1(C)CCc2c1nc1c(c2NC(=O)N=S(N)(=O)c2sc(C(C)(O)CO)cc2F)CCC1 (single isomer, unassigned) [Compound 640b, (S, R) and (R, R) or (R, S) and (S, S)-5-(1,2-Dihydroxypropan-2-yl)-N′-((3,3-dimethyl-1,2,3,5,6,7-hexahydrodicyclopenta [b,e]pyridin-8-yl)carbamoyl)-3-fluorotliophene-2-sulfonimidamide]	0.04 to 0.2
Cc1c(C(F)(F)F)nc2c(c1NC(=O)N=S(N)(=O)c1cnc(C(C)(C)O)s1)CCC2C (centres unmarked) [Compound 608, N′-((3,7-dimethyl-2-(trifluoromethyl)-6,7-dihydro-5H-cyclopenta[b]pyridin-4-yl)carbamoyl)-2-(2-hydroxypropan-2-yl)thiazole-5-sulfonimidamide]	1 to 5

Same assay, conditions: Table B3; hTHP-1 assay, 2% fetal bovine serum; class symbols; read-out: IC50

SMILES	IC50 [µM]
CCc1c(C(F)(F)F)nc2c(c1NC(=O)N=S(N)(=O)c1nn(C(F)F)cc1F)CCC2 (single isomer, unassigned) [Example 709, (R) or (S)-1-(difluoromethyl)-N′-((3-ethyl-2-(trifluoromethyl)-6,7-dihydro-5H-cyclopenta[b]pyridin-4-yl)carbamoyl)-4-fluoro-1H-pyrazole-3-sulfonimidamide]	1 to 5
